Measurements from PubChem BioAssay (NCI).
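Five compound concentrations were applied to cells in 96-well plates for 48 hours; endpoints were derived by simple linear interpolation of the resulting dose-response curve. Here, GI50 denotes the concentration required for 50% inhibition of growth. TGI marks complete inhibition of growth.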

Experiments:
Assay in all cases: NCI-60 cell line screen, 48 h
[1] = system: HL-60(TB) leukemia
[2] = system: T-47D breast
[3] = system: BT-549 breast
[4] = system: NCI-H460 lung
[5] = system: HCT-15 colon
[6] = system: IGROV1 ovarian
[7] = system: SK-OV-3 ovarian
[8] = system: SK-MEL-2 melanoma
[9] = system: SF-539 CNS
[10] = system: SK-MEL-28 melanoma
[11] = system: MDA-MB-231 breast
[12] = system: HT29 colon
[13] = system: OVCAR-4 ovarian
[14] = system: CAKI-1 renal
[15] = system: UACC-257 melanoma
[16] = system: NCI-H522 lung
[17] = system: LOX IMVI melanoma
[18] = system: SN12C renal
[19] = system: MOLT-4 leukemia
[20] = system: A498 renal
[21] = system: NCI/ADR-RES ovarian
[22] = system: UO-31 renal
[23] = system: EKVX NSCLC
[24] = system: OVCAR-3 ovarian
[25] = system: OVCAR-8 ovarian
[26] = system: K-562 leukemia
[27] = system: HS 578T breast
[28] = system: SNB-19 CNS
[29] = system: KM12 colon
[30] = system: 786-0 renal
[31] = system: MALME-3M melanoma
[32] = system: OVCAR-5 ovarian
[33] = system: MCF7 breast
[34] = system: HOP-62 NSCLC
[35] = system: U251 CNS
[36] = system: SNB-75 CNS
[37] = system: RXF 393 renal
[38] = system: COLO 205 colon
[39] = system: TK-10 renal
[40] = system: SR leukemia
[41] = system: RPMI-8226 leukemia
[42] = system: PC-3 prostate
[43] = system: ACHN renal
[44] = system: SK-MEL-5 melanoma
[45] = system: NCI-H226 lung
[46] = system: UACC-62 melanoma
[47] = system: HCC-2998 colon
[48] = system: DU-145 prostate
[49] = system: SW-620 colon
[50] = system: SF-268 CNS
[51] = system: HCT-116 colon
[52] = system: HOP-92 NSCLC
[53] = system: MDA-MB-435
[54] = system: CCRF-CEM leukemia
[55] = system: SF-295 CNS
[56] = system: NCI-H23 lung
[57] = system: A549 NSCLC
[58] = system: M14 melanoma

Structure (SMILES): O=C1[C@H]2Cc3c([nH]c4ccccc34)[C@@H](c3ccc(Br)cc3)N2C(=O)CN1C1CCN(Cc2ccccc2)CC1
- GI50 [1]: 2.3 µM
- TGI [1]: 8.31 µM
- GI50 [2]: 3.54 µM
- TGI [2]: 15.7 µM
- GI50 [3]: 3.4 µM
- TGI [3]: 7.49 µM
- GI50 [4]: 3.87 µM
- TGI [4]: 7.82 µM
- GI50 [5]: 2.62 µM
- TGI [5]: 5.92 µM
- GI50 [6]: 1.49 µM
- TGI [6]: 5.8 µM
- GI50 [7]: 6 µM
- TGI [7]: > 25 µM
- GI50 [8]: 5.73 µM
- TGI [8]: 14.9 µM
- GI50 [9]: 3.61 µM
- TGI [9]: 7.03 µM
- GI50 [10]: 4.41 µM
- TGI [10]: 8.53 µM
- GI50 [11]: 3.44 µM
- TGI [11]: 7.56 µM
- GI50 [12]: 3 µM
- TGI [12]: 7.74 µM
- GI50 [13]: 4.24 µM
- TGI [13]: 13.1 µM
- GI50 [14]: 2.44 µM
- TGI [14]: 7.58 µM
- GI50 [15]: 4.64 µM
- TGI [15]: 10.2 µM
- GI50 [16]: 4.6 µM
- TGI [16]: 10.3 µM
- GI50 [17]: 2.73 µM
- TGI [17]: 6.92 µM
- GI50 [18]: 3.17 µM
- TGI [18]: 6.72 µM
- GI50 [19]: 1.5 µM
- TGI [19]: > 25 µM
- GI50 [20]: 4.28 µM
- TGI [20]: 8.04 µM
- GI50 [21]: 3.58 µM
- TGI [21]: 9.46 µM
- GI50 [22]: 1.13 µM
- TGI [22]: 18.2 µM
- GI50 [23]: 3.35 µM
- TGI [23]: 14.7 µM
- GI50 [24]: 3.27 µM
- TGI [24]: 7.23 µM
- GI50 [25]: 3.99 µM
- TGI [25]: 9.01 µM
- GI50 [26]: 1.06 µM
- TGI [26]: 9.94 µM
- GI50 [27]: 3.4 µM
- TGI [27]: 9.29 µM
- GI50 [28]: 6.77 µM
- TGI [28]: > 25 µM
- GI50 [29]: 5.49 µM
- TGI [29]: 18.1 µM
- GI50 [30]: 3.46 µM
- TGI [30]: 7 µM
- GI50 [31]: 3.69 µM
- TGI [31]: 7.81 µM
- GI50 [32]: 5.1 µM
- TGI [32]: 12.7 µM
- GI50 [33]: 1.14 µM
- TGI [33]: 4.75 µM
- GI50 [34]: 3.98 µM
- TGI [34]: 10.8 µM
- GI50 [35]: 2.96 µM
- TGI [35]: 6.53 µM
- GI50 [36]: 0.745 µM
- TGI [36]: 18.3 µM
- GI50 [37]: 2.91 µM
- TGI [37]: 6.41 µM
- GI50 [38]: 2.62 µM
- TGI [38]: 6.04 µM
- GI50 [39]: 5.79 µM
- TGI [39]: 12.7 µM
- GI50 [40]: 1.86 µM
- TGI [40]: 8.79 µM
- GI50 [41]: 1.74 µM
- TGI [41]: 7.67 µM
- GI50 [42]: 1.67 µM
- TGI [42]: 7.3 µM
- GI50 [43]: 3.76 µM
- TGI [43]: 9.65 µM
- GI50 [44]: 3.84 µM
- TGI [44]: 7.29 µM
- GI50 [45]: 5.04 µM
- TGI [45]: > 25 µM
- GI50 [46]: 3.58 µM
- TGI [46]: 9.3 µM
- GI50 [47]: 3.44 µM
- TGI [47]: 7.94 µM
- GI50 [48]: 7.12 µM
- TGI [48]: > 25 µM
- GI50 [49]: 3.32 µM
- TGI [49]: 7.15 µM
- GI50 [50]: 3.49 µM
- TGI [50]: > 25 µM
- GI50 [51]: 2.54 µM
- TGI [51]: 5.72 µM
- GI50 [52]: 2.65 µM
- TGI [52]: 6.57 µM
- GI50 [53]: 3.5 µM
- TGI [53]: 7.02 µM
- GI50 [54]: 3.3 µM
- TGI [54]: > 25 µM
- GI50 [55]: 4.56 µM
- TGI [55]: 9.1 µM
- GI50 [56]: 3.98 µM
- TGI [56]: 9.4 µM
- GI50 [57]: 3.7 µM
- TGI [57]: 13.5 µM
- GI50 [58]: 3.24 µM
- TGI [58]: 8.35 µM
